Reference: patent US7098199B2 (Sterix Limited, priority 1991, dated 2006)
Read-outs that look alike come from different tables or passages of the source.

Key:
[1] = target: T1, E1-STS (Homo sapiens, UniProt P08842); assay: Hydrolysis of coumarin sulphate (12) by placental microsomes, TLC; assay type: biochemical
T1 construct: from tissue; host or cells: placental microsomes (100,000 g fraction)
T1 sequence (P08842 22-583): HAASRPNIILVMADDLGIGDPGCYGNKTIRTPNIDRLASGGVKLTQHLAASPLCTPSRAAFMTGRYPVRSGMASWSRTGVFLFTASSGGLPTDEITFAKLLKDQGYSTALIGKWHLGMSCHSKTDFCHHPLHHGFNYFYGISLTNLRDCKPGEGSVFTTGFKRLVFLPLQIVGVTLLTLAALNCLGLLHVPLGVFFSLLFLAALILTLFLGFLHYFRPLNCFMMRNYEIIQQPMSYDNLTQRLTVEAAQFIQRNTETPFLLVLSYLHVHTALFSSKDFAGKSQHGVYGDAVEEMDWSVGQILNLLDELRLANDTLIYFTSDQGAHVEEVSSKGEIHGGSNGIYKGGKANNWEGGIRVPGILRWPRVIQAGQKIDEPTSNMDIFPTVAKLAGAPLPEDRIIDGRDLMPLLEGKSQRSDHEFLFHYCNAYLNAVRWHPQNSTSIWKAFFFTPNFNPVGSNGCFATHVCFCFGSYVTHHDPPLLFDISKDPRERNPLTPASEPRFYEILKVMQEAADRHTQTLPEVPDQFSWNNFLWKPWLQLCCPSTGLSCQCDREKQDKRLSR

[2] = Chemical and thermal stability of compound 12; assay type: physicochemical; details: sodium hydroxide in methanol
Description: Two equivalents of sodium hydroxide are required for consuming excess sulphur trioxide-pyridine complex to yield the neutral sodium sulphate. Insufficient amount of sodium hydroxide will therefore lead to the formation of sodium hydrogen sulphate which is acidic.

[3] = target: T2, oestrone sulphatase (Rattus norvegicus, UniProt P15589); assay: Inhibition of oestrone sulphatase activity in vivo in rat liver (NOMATE); details: 0.1 mg/Kg/day for five days orally; rat liver tissue; compared with untreated controls
T2 construct: samples of liver tissue were obtained; from tissue; host or cells: rat liver
T2 sequence (P15589 20-577): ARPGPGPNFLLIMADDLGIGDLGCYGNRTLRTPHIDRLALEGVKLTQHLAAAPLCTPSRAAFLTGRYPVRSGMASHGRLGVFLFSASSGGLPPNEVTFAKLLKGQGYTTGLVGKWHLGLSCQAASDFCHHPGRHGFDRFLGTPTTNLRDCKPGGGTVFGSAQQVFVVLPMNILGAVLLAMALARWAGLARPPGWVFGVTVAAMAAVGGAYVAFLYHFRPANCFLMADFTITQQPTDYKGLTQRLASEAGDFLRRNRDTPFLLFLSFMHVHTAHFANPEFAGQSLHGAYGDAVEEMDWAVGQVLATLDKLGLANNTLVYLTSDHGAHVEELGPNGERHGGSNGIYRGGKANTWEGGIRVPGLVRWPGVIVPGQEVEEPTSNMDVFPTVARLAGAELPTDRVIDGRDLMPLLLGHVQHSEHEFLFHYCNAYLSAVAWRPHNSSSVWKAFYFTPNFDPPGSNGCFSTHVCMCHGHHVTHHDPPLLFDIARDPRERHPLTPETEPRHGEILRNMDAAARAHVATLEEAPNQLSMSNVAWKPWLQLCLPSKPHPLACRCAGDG
Method: (§1) Using 17-deoxy oestrone-3-O-sulphamate (NOMATE, FIG. 5 Formula IV where X=—OSO2NH2, Y=—CH2— and R1 and R2=H, and FIG. 13) as a representative example, the ability of this compound to inhibit oestrone sulphatase activity in vivo was examined in rats. The oestrogenicity of this compound was examined in ovariectomised rats. In this model compounds which are oestrogenic stimulate uterine growth.
NOMATE (0.1 mg/Kg/day for five days) was administered orally to rats with another group of animals receiving vehicle only (propylene glycol). At the end of the study samples of liver tissue were obtained and oestrone sulphatase activity assayed using ^3H oestrone sulphate as the substrate as previously described.

[4] = tested on: uterine growth; assay: In vivo oestrogenicity: uterine weight in ovariectomised rats (NOMATE); set-up: species or system rat; details: 0.1 mg/Kg/day for five days orally
Method: as §1
NOMATE (0.1 mg/Kg/day for five days) was administered orally to rats with another group of animals receiving vehicle only (propylene glycol). At the end of the study uteri were obtained and weighed with the results being expressed as uterine weight/whole body weight×100.

[5] = target: T3, oestrone sulphatase (Homo sapiens, UniProt P08842)
T3 sequence (P08842 22-583): T1 sequence (P08842 22-583)

[6] = target: T4, Steroid sulphatase (Steryl Sulphatase EC3.1.6.2) (Homo sapiens, UniProt P08842); assay: Steroid sulphatase activity in intact MCF-7 cells; assay type: cell-based; details: for Steroid Sulphatase Activity: mean ± 1 S.D., n = 3
T4 construct: endogenous in cells; host or cells: MCF-7 human breast cancer cells
T4 sequence (P08842 22-583): T1 sequence (P08842 22-583)
Method: Steroid sulphatase is defined as: Steryl Sulphatase EC3.1.6.2.
Steroid sulphatase activity was measured in vitro using intact MCF-7 human breast cancer cells. This hormone dependent cell line is widely used to study the control of human breast cancer cell growth. […] Cells were maintained in Minimal Essential Medium (MEM) (Flow Laboratories, Irvine, Scotland) containing 20 mM HEPES, 5% foetal bovine serum, 2 mM glutamine, nonessential amino acids and 0.075% sodium bicarbonate. Up to 30 replicate 25 cm^2 tissue culture flasks were seeded with approximately 1×10^5 cells/flask using the above medium. Cells were grown to 80% confluency and medium was changed every third day.
Each batch of experiments included incubations of microsomes prepared from a sulphatase-positive human placenta (positive control) and flasks without cells (to assess apparent non-enzymatic hydrolysis of the substrate). The number of cell nuclei per flask was determined using a Coulter Counter after treating the cell monolayers with Zaponin. One flask in each batch was used to assess cell membrane status and viability using the Trypan Blue exclusion method (Phillips, H. J. (1973) In: Tissue culture and applications,[eds: Kruse, D. F. & Patterson, M. K.]; pp. 406–408; Academic Press, New York).
Unpaired Student's t-test was used to test the statistical significance of results.
An identical experimental protocol to that described in Example 4 was used to generate results for oestrone-3-N,N-diimethylsulphamate except that incubations contained oestrone-3-N,N-dimethylsulphaiate (5 concentrations: 0; 0.001 μM; 0.01 μM; 0.1 μM; 1 μM) in place of oestrone-3-sulphamate.

[7] = target: T5, Steroid sulphatase (Rattus norvegicus, UniProt P15589); assay: Steroid sulphatase activity in liver microsome preparations from rats treated subcutaneously; assay type: in vivo; set-up: except that the tissue source was rat liver; from tissue; host or cells: liver of female Wistar rats; details: 10 mg/kg/day s.c. for 7 days, rat liver microsomes; for Steroid Sulphatase Activity: mean ± 1 S.D., n = 3
T5 sequence (P15589 20-577): T2 sequence (P15589 20-577)

[8] = target: T4, Steroid sulphatase (Steryl Sulphatase EC3.1.6.2); assay: Steroid sulphatase activity in MCF-7 cells pre-incubated with inhibitor and washed; assay type: cell-based; details: pre-treatment 2 hours with 0.1 μM, cells washed 3 times; mean ± 1 S.D., n = 3
[9] = target: T6, Steroid sulphatase (Homo sapiens, UniProt P08842); assay: Steroid sulphatase activity in placental microsomes; details: for Steroid Sulphatase Activity: mean of 2 estimates
T6 sequence (P08842 22-583): T1 sequence (P08842 22-583)

[10] = target: T6, Steroid sulphatase; assay: biochemical
[11] = target: T7, E1-STS (Rattus norvegicus, UniProt P15589); assay: E1-STS activity in uteri of treated ovariectomised rats; assay type: in vivo; details: 1 mg/kg subcutaneously for 5 days, compared with untreated animals
T7 construct: The E1-STS activity in the uteri obtained from these animals; from tissue; host or cells: rat uterus
T7 sequence (P15589 20-577): T2 sequence (P15589 20-577)

[12] = tested on: uterine weight; assay: Oestrogenic activity: uterine weight in ovariectomised rats (compound 14); assay type: in vivo, rat; details: 1 mg/kg subcutaneously for 5 days
[13] = target: T8, sulphatase (Rattus norvegicus, UniProt P15589); assay: Sulphatase activity in white blood cells of rats after oral dosing; assay type: in vivo; details: for % Inhibition MD / % Inhibition SD: white blood cells; for % Inhibition SD: single dose
T8 construct: from tissue; host or cells: rat white blood cells
T8 sequence (P15589 20-577): T2 sequence (P15589 20-577)
Method: Inhibition of sulphatase activity was assessed in white blood cells (wbcs) that were collected after a SD or MD. Sulphatase activity was assayed using labelled oestrone sulphate as the substrate and measuring the release of oestrone.

[14] = target: T9, oestrone sulphatase (E1-STS) (Homo sapiens, UniProt P08842); assay type: cell-based; details: intact MCF-7 cells, 20 h
T9 sequence (P08842 22-583): T1 sequence (P08842 22-583)

## Cc1cc(=O)oc2cc(OS(=O)(=O)[O-])ccc12.[Na+] [Compound 12, 7-(Sulphoxy)4-Methylcoumarin. sodium salt, reference compound]
[1]; 100 μg incubated for 1 hour with placental microsomes
  substrate for E1-STS (in words): is indeed a substrate for the sulphatase
[2]
  stability in bases and acidic conditions (in words): stable in bases such as sodium hydroxide in methanol but not in acidic conditions

## C[C@@]12CCC[C@H]1[C@@H]1CCc3cc(OS(N)(=O)=O)ccc3[C@H]1CC2 [NOMATE, 17-deoxy oestrone-3-O-sulphamate]
[3]
  inhibition of oestrone sulphatase activity in vivo: 98%
[4]
  effect on uterine growth (oestrogenicity, in words): no significant effect on uterine growth
[5]; concentration tested 0.1 mM (so in the source)
  % Inhibition (Mean) Placental Microsomes: 97.2%
[5]; concentration tested 1 mM (so in the source)
  % Inhibition (Mean) Placental Microsomes: 99.5%
[5]; concentration tested 10 mM (so in the source)
  % Inhibition (Mean) Placental Microsomes: 99.5%
[5]; concentration tested 25 mM (so in the source)
  % Inhibition (Mean) Placental Microsomes: 99.7%

## C[C@]12CC[C@@H]3c4ccc(OS(N)(=O)=O)cc4CC[C@H]3[C@@H]1CCC2=O [Oestrone-3-sulphamate]
[6]; MCF7, inhibitor 0.01 nM, read-out: % reduction over control (% inhibition)
  inhibition at 10 pM: 17.2%
[6]; MCF7, inhibitor 0.1 nM, read-out: % reduction over control (% inhibition)
  inhibition at 0.0001 µM: 60.9%
[6]; MCF7, inhibitor 1 nM, read-out: % reduction over control (% inhibition)
  inhibition at 0.001 µM: 95%
[6]; MCF7, inhibitor 0.01 μM, read-out: % reduction over control (% inhibition)
  inhibition at 0.01 µM: 98.8%
[6]; MCF7, inhibitor 0.1 μM, read-out: % reduction over control (% inhibition)
  inhibition at 0.1 µM: 99.2%
[6]; MCF7, inhibitor 1 μM, read-out: % reduction over control (% inhibition)
  inhibition at 1 µM: 99.5%
[6]; inhibitor 0.01 pM
  Steroid Sulphatase Activity: 362.3 ± 21.2 fmol/20 hr/10^6 cells
[6]; inhibitor 0.1 pM
  Steroid Sulphatase Activity: 330.7 ± 17.8 fmol/20 hr/10^6 cells
[6]; inhibitor 1 pM
  Steroid Sulphatase Activity: 321.8 ± 6.2 fmol/20 hr/10^6 cells
[6]; inhibitor 0.01 nM
  Steroid Sulphatase Activity: 265.1 ± 11.0 fmol/20 hr/10^6 cells
[6]; inhibitor 0.1 nM
  Steroid Sulphatase Activity: 124.8 ± 12.4 fmol/20 hr/10^6 cells
[6]; inhibitor 1 nM
  Steroid Sulphatase Activity: 16.49 ± 4.7 fmol/20 hr/10^6 cells
[6]; inhibitor 0.01 μM
  Steroid Sulphatase Activity: 3.92 ± 0.4 fmol/20 hr/10^6 cells
[6]; inhibitor 0.1 μM
  Steroid Sulphatase Activity: 2.53 ± 1.1 fmol/20 hr/10^6 cells
[6]; inhibitor 1 μM
  Steroid Sulphatase Activity: 1.68 ± 0.7 fmol/20 hr/10^6 cells
[6]; inhibitor 1 fM
  Steroid Sulphatase Activity: 353.3 ± 39.0 fmol/20 hr/10^6 cells
[7]; assay substrate DHA-S
  % reduction over control: 94.2%
  Steroid Sulphatase Activity: 0.1 ± 0.01 nmol/30 min/200 mg protein
[7]; assay substrate E1-S
  % reduction over control: 98.4%
  Steroid Sulphatase Activity: 0.34 ± 0.1 nmol/30 min/200 mg protein
[8]
  Steroid Sulphatase Activity: 1.7 ± 0.2 fmol/20 hr/10^6 cells
[9]; 0.05 µM
  % reduction over control (% inhibition): 44.0%
[9]; 0.1 μM
  % reduction over control (% inhibition): 60.2%
[9]; 0.2 µM
  % reduction over control (% inhibition): 81.8%
[9]; 0.4 µM
  % reduction over control (% inhibition): 89.2%
[9]; 0.6 µM
  % reduction over control (% inhibition): 92.0%
[9]; 0.8 µM
  % reduction over control (% inhibition): 93.6%
[9]; 1 μM
  % reduction over control (% inhibition): 93.3%
[9]; inhibitor 0.05 μM
  Steroid Sulphatase Activity: 430.4 pmol/hr/0.1 mg protein
[9]; inhibitor 0.1 μM
  Steroid Sulphatase Activity: 305.9 pmol/hr/0.1 mg protein
[9]; inhibitor 0.2 μM
  Steroid Sulphatase Activity: 140.0 pmol/hr/0.1 mg protein
[9]; inhibitor 0.4 μM
  Steroid Sulphatase Activity: 83.3 pmol/hr/0.1 mg protein
[9]; inhibitor 0.6 μM
  Steroid Sulphatase Activity: 61.8 pmol/hr/0.1 mg protein
[9]; inhibitor 0.8 μM
  Steroid Sulphatase Activity: 49.2 pmol/hr/0.1 mg protein
[9]; inhibitor 1.0 μM
  Steroid Sulphatase Activity: 51.6 pmol/hr/0.1 mg protein
[10]
  IC50: 70 nM
[1]; EMATE 10 μM
  effect on hydrolysis of compound (12) by E1-STS (in words): reduced the hydrolysis of compound (12) by E1-STS

## Cc1cc(=O)oc2cc(OS(N)(=O)=O)ccc12 [compound 14]
[11]
  inhibition of E1-STS activity in the uteri: 89.4%
[12]
  uterine weight (oestrogenic activity, in words): did not result in any significant increase in the uterine weight
[13]; 0.1 mg/kg oral daily for seven days
  % Inhibition MD: 65%
[13]; 0.1 mg/kg oral
  % Inhibition SD: 72%
[13]; 1.0 mg/kg oral daily for seven days
  % Inhibition MD: 85%
[13]; 1.0 mg/kg oral
  % Inhibition SD: 85%
[13]; 10.0 mg/kg oral daily for seven days
  % Inhibition MD: 89%
[13]; 10.0 mg/kg oral
  % Inhibition SD: 96%
[13]; oral, rats
  oral activity in rats (in words): potent oral activity

## NS(=O)(=O)Oc1ccc2c(C(F)(F)F)cc(=O)oc2c1 [compound 16, 4-(trifluoromethylcoumarin)-7-O-sulphamate]
[14]
  inhibition of oestrone sulphatase at 10 μM: 71.5%
